Results on nine compounds are retold here after ChEMBL document CHEMBL5512655, “Discovery of indolylacryloyl-derived oxacins as novel potential broad-spectrum antibacterial candidates” (Eur J Med Chem, 2024).

Format in all cases: functional
Assay [1] has as its system Pseudomonas aeruginosa. The assay can be described thus: Antibacterial activity against Pseudomonas aeruginosa ATCC 27853 assessed as inhibition of bacterial growth measured after 24 hrs incubation.
For assay [2], the system named is Staphylococcus aureus. The assay can be described thus: Antibacterial activity against Staphylococcus aureus ATCC 29213 assessed as inhibition of bacterial growth measured after 24 hrs incubation.
In assay [3] the test system is Staphylococcus aureus. The assay can be described thus: Antibacterial activity against Staphylococcus aureus ATCC 25923 assessed as inhibition of bacterial growth measured after 24 hrs incubation.
The subject of assay [4] is Pseudomonas aeruginosa. Kind of assay: Antibacterial activity against Pseudomonas aeruginosa assessed as inhibition of bacterial growth measured after 24 hrs incubation.
Assay [5] deals with Klebsiella pneumoniae. Kind of assay: Antibacterial activity against Klebsiella pneumonia assessed as inhibition of bacterial growth measured after 24 hrs incubation.
The subject of assay [6] is Staphylococcus aureus. The assay can be described thus: Antibacterial activity against methicillin-resistant Staphylococcus aureus N315 assessed as inhibition of bacterial growth measured after 24 hrs incubation.
In assay [7] the test system is Escherichia coli. Kind of assay: Antibacterial activity against Escherichia coli ATCC 25922 assessed as inhibition of bacterial growth measured after 24 hrs incubation.
Assay [8] concerns Enterococcus faecalis. The assay can be described thus: Antibacterial activity against Enterococcus faecalis assessed as inhibition of bacterial growth measured after 24 hrs incubation.
For assay [9], the system named is Staphylococcus aureus. Kind of assay: Antibacterial activity against Staphylococcus aureus assessed as inhibition of bacterial growth measured after 24 hrs incubation.
Assay [10] relates to Escherichia coli. Kind of assay: Antibacterial activity against Escherichia coli assessed as inhibition of bacterial growth measured after 24 hrs incubation.
Assay [11] has as its system Acinetobacter baumannii. The assay can be described thus: Antibacterial activity against Acinetobacter baumannii assessed as inhibition of bacterial growth measured after 24 hrs incubation.

In brackets after ≈: the same amount, converted by molar mass.

`CCn1cc(C(=O)O)c(=O)c2cc(F)c(N3CCN(C(=O)/C(C#N)=C/c4cn(Cc5ccc(C)cc5)c5ccccc45)CC3)cc21`: the MIC (in general, the lowest concentration found to suppress growth) came to 0.25 µg/mL (≈ 0.405 µM) in assay [1]; 4 µg/mL (≈ 6.48 µM) in [2]; 2 µg/mL (≈ 3.24 µM) in assay [3]; 32 µg/mL (≈ 51.8 µM) in assay [4]; 0.5 µg/mL (≈ 0.809 µM) in [5]; 1 µg/mL (≈ 1.62 µM) in assay [6]. Further, the MIC in assay [7] came out at 8 µg/mL (≈ 13 µM); in [8], 8 µg/mL (≈ 13 µM); in assay [9], 32 µg/mL (≈ 51.8 µM); in assay [10] it was 16 µg/mL (≈ 25.9 µM); in assay [11] it was 8 µg/mL (≈ 13 µM).
For `CCn1cc(C(=O)O)c(=O)c2cc(F)c(N3CCN(C(=O)/C(C#N)=C/c4c(C)[nH]c5ccccc45)CC3)cc21`, the MIC in assay [1] was 0.5 µg/mL (≈ 0.948 µM); in assay [2], 0.25 µg/mL (≈ 0.474 µM); in assay [3], 4 µg/mL (≈ 7.58 µM); in assay [4], 1 µg/mL (≈ 1.9 µM); in assay [5] it was 2 µg/mL (≈ 3.79 µM); in assay [6] it was 2 µg/mL (≈ 3.79 µM). The MIC in assay [7] was 0.25 µg/mL (≈ 0.474 µM); in assay [8], 1 µg/mL (≈ 1.9 µM); in [9] it was 1 µg/mL (≈ 1.9 µM); in assay [10], 1 µg/mL (≈ 1.9 µM); in [11] it was 1 µg/mL (≈ 1.9 µM).
`CCn1cc(C(=O)O)c(=O)c2cc(F)c(N3CCN(C(=O)/C(C#N)=C/c4cn(CC(N)=O)c5ccccc45)CC3)cc21`: the MIC in assay [1] came to 1 µg/mL (≈ 1.75 µM); in [2] it was 16 µg/mL (≈ 28 µM); in [3], 8 µg/mL (≈ 14 µM); in assay [4], 8 µg/mL (≈ 14 µM); in [5], 1 µg/mL (≈ 1.75 µM); in [6], 0.25 µg/mL (≈ 0.438 µM). Also, the MIC is 0.25 µg/mL (≈ 0.438 µM) in assay [7]; 16 µg/mL (≈ 28 µM) in [8]; 32 µg/mL (≈ 56.1 µM) in assay [9]; 0.5 µg/mL (≈ 0.876 µM) in [10]; 8 µg/mL (≈ 14 µM) in [11].
Regarding `CCn1cc(C(=O)O)c(=O)c2cc(F)c(N3CCN(C(=O)/C(C#N)=C/c4cn(Cc5cccc(F)c5)c5ccccc45)CC3)cc21`, the MIC in assay [1] was 1 µg/mL (≈ 1.61 µM); in assay [2] it was 8 µg/mL (≈ 12.9 µM); in assay [3], 16 µg/mL (≈ 25.7 µM); in [4], 2 µg/mL (≈ 3.22 µM); in assay [5] it was 1 µg/mL (≈ 1.61 µM); in assay [6] it was 16 µg/mL (≈ 25.7 µM). Besides, the MIC in assay [7] was determined as 0.25 µg/mL (≈ 0.402 µM); in assay [8], 16 µg/mL (≈ 25.7 µM); in assay [9], 32 µg/mL (≈ 51.5 µM); in assay [10] it was 0.25 µg/mL (≈ 0.402 µM); in assay [11], 0.5 µg/mL (≈ 0.804 µM).
Regarding `CCCCn1cc(/C=C(\C#N)C(=O)N2CCN(c3cc4c(cc3F)c(=O)c(C(=O)O)cn4CC)CC2)c2ccccc21`, the MIC in [1] is 1 µg/mL (≈ 1.76 µM); in assay [2], 1 µg/mL (≈ 1.76 µM); in assay [3], 4 µg/mL (≈ 7.02 µM); in [4], 1 µg/mL (≈ 1.76 µM); in assay [5], 0.5 µg/mL (≈ 0.878 µM); in assay [6], 2 µg/mL (≈ 3.51 µM). For the same compound, the MIC was found to be 2 µg/mL (≈ 3.51 µM) in [7]; 2 µg/mL (≈ 3.51 µM) in assay [8]; 2 µg/mL (≈ 3.51 µM) in assay [9]; 4 µg/mL (≈ 7.02 µM) in assay [10]; 2 µg/mL (≈ 3.51 µM) in [11].
As for `CCn1cc(C(=O)O)c(=O)c2cc(F)c(N3CCN(C(=O)/C(C#N)=C/c4cn(Cc5cccc(Cl)c5)c5ccccc45)CC3)cc21`, the MIC turned out to be 0.25 µg/mL (≈ 0.392 µM) in [1]; 4 µg/mL (≈ 6.27 µM) in assay [2]; 2 µg/mL (≈ 3.13 µM) in assay [3]; 32 µg/mL (≈ 50.1 µM) in [4]; 0.5 µg/mL (≈ 0.784 µM) in [5]; 1 µg/mL (≈ 1.57 µM) in assay [6]. Besides, the MIC is 8 µg/mL (≈ 12.5 µM) in assay [7]; 8 µg/mL (≈ 12.5 µM) in assay [8]; 32 µg/mL (≈ 50.1 µM) in assay [9]; 16 µg/mL (≈ 25.1 µM) in assay [10]; 8 µg/mL (≈ 12.5 µM) in assay [11].
Regarding `CCn1cc(C(=O)O)c(=O)c2cc(F)c(N3CCN(C(=O)/C(C#N)=C/c4c[nH]c5c(C)cccc45)CC3)cc21`, the MIC in [1] came out at 1 µg/mL (≈ 1.9 µM); in assay [2], 4 µg/mL (≈ 7.58 µM); in assay [3], 4 µg/mL (≈ 7.58 µM); in assay [4], 4 µg/mL (≈ 7.58 µM); in [5] it was 0.5 µg/mL (≈ 0.948 µM); in assay [6] it was 4 µg/mL (≈ 7.58 µM). For the same compound, the MIC was 2 µg/mL (≈ 3.79 µM) in [7]; 4 µg/mL (≈ 7.58 µM) in assay [8]; 4 µg/mL (≈ 7.58 µM) in assay [9]; 1 µg/mL (≈ 1.9 µM) in assay [10]; 2 µg/mL (≈ 3.79 µM) in [11].
Take `CCn1cc(C(=O)O)c(=O)c2cc(F)c(N3CCN(C(=O)/C(C#N)=C/c4cn(CC(=O)O)c5ccccc45)CC3)cc21`: the MIC in assay [1] stood at 0.5 µg/mL (≈ 0.875 µM); in [2], 1 µg/mL (≈ 1.75 µM); in [3], 0.5 µg/mL (≈ 0.875 µM); in assay [4] it was 0.5 µg/mL (≈ 0.875 µM); in assay [5], 0.25 µg/mL (≈ 0.437 µM); in assay [6], 0.5 µg/mL (≈ 0.875 µM). Further, the MIC was determined as 0.5 µg/mL (≈ 0.875 µM) in [7]; 0.5 µg/mL (≈ 0.875 µM) in assay [8]; 2 µg/mL (≈ 3.5 µM) in assay [9]; 0.5 µg/mL (≈ 0.875 µM) in assay [10]; 0.25 µg/mL (≈ 0.437 µM) in [11].
Turning to `CCn1cc(C(=O)O)c(=O)c2cc(F)c(N3CCN(C(=O)/C(C#N)=C/c4c[nH]c5cccc(Cl)c45)CC3)cc21`, the MIC in assay [1] came out at 1 µg/mL (≈ 1.82 µM); in assay [2], 2 µg/mL (≈ 3.65 µM); in [3] it was 4 µg/mL (≈ 7.3 µM); in [4], 32 µg/mL (≈ 58.4 µM); in assay [5] it was 0.5 µg/mL (≈ 0.912 µM); in [6], 8 µg/mL (≈ 14.6 µM). For the same compound, the MIC is 2 µg/mL (≈ 3.65 µM) in assay [7]; 8 µg/mL (≈ 14.6 µM) in assay [8]; 1 µg/mL (≈ 1.82 µM) in [9]; 4 µg/mL (≈ 7.3 µM) in assay [10]; 2 µg/mL (≈ 3.65 µM) in assay [11].
